Experimental data as given in patent US10894777B2, “TG2 inhibitor piperazine compounds and uses thereof” (UNIVERSITY OF OTTAWA, priority 2016, dated 2021).

Tests used:
TG2 = molecular target: T1, TG2 (Homo sapiens, UniProt P21980); assay: Inhibition irreversibility (filtration, dilution, activity assay); format: biochemical; conditions: after filtration over 10-kDa membrane and dilution
T1 sequence (P21980 1-687): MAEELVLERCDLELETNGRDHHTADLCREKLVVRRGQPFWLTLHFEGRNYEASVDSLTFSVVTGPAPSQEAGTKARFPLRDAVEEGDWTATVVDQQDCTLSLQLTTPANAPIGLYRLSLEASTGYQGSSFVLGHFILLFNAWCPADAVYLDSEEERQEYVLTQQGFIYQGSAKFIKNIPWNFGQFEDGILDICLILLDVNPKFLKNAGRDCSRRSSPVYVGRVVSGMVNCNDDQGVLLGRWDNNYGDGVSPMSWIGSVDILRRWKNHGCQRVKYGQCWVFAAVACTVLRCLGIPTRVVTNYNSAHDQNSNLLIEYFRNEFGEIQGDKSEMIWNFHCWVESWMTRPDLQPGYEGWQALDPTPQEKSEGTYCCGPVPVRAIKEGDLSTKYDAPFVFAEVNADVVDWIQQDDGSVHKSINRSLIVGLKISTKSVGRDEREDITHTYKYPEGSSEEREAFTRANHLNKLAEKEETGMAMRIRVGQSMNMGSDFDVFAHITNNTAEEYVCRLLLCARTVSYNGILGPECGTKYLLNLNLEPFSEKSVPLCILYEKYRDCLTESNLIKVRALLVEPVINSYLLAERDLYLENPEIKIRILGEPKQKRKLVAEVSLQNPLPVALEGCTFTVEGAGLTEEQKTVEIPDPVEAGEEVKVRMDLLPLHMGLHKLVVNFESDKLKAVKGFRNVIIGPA
Source text: Inhibition irreversibility.

procaspase 3 = assay: Immunoblot of procaspase 3 cleavage, SCC-13 spheroids; format: cell-based, human; conditions: 8 day spheroids, 20 μM
Description: In (A), SCC-13 cells (40,000) were plated in non-adherent six well dishes, grown for 8 days in spheroid medium, and then NC9 was added and spheroid number was monitored at 0-48 hours. In (B), spheroids were grown for 10 days, treated for 48 hours with indicated level of NC9 and photographed. In (C), SCC-13 cells were plated at 40,000 cells per well in non-adherent six well dishes and after 10 days the spheroids were treated with 0-20 μM NC9 for 0-72 hours before trypan blue exclusion viability assay. In (D), SCC-13 spheroids were grown for 10 days, treated with 0 or 20 μM NC9 for 48 hours, and TG2 level was assayed by immunoblot. In (E), SCC-13 cells were grown as monolayers in spheroid medium and TG2 activity was monitored by FC incorporation assay as outlined in the Materials and Methods for Example 7. In (F), SCC-13 cell 8 day spheroids were treated with […] NC9 and cells were harvested at the indicated times for immunoblot detection of procaspase 3 and cleaved caspase 3. In all panels, the values are mean±SEM, n=3, p<0.05.

A431 cells = assay: Migration (scratch wound closure) assay, A431 cells; format: cell-based, human; conditions: 20 μM
Description: In (A), it is shown that A431-derived ECS cells have elevated TG2 and mesenchymal markers. A431 cells (40,000 cells/well) were grown in spheroid media in monolayer conditions or as non-attached spheroids (ECS cells) for 10 d. Cells were harvested and lysates prepared for immunoblot. In (B), A431 cells were electroporated with 3 μg of control- or TG2-siRNA and at 72 h extracts were prepared to assay TG2 and EMT marker level. In (C), A431-derived ECS cells were electroporated with 3 μg of the indicated siRNA and then grown as spheroids for 96 h. […] In (D), A431 cells (500,000 cells/well) were plated in monolayer culture in spheroid media in 100 mm dishes. […] Confluent monolayers were then scratched with a 10-μL pipette tip, rinsed, and width of the wound was monitored for 0-14 h.
In (A), A431 cells were grown as monolayers or in ultralow attachment plates (spheroids) in spheroid medium. […] Spheroid number was counted on days 1, 2 and 3. […] Spheroid number and trypan-blue viable cell number were determined at the indicated times following NC9 addition. […] A wound was created and ability of the cells to close the wound was monitored with time. […]
Migration assay. […] Images were collected, at 0-18 h after the scratch using the 10× objective, and the width of the opening was measured as a function of time as an index of cell migration potential.

C=CC(=O)NCCCC[C@H](NC(=O)OCc1ccccc1)C(=O)N1CCN(S(=O)(=O)c2cccc3c(N(C)C)cccc23)CC1 [VA4, (S)-benzyl(6-acrylamido-1-(4-((5-(dimethylamino)naphthalen-1-yl)sulfonyl)piperazin-1-yl)-1-oxohexan-2-yl)carbamate]
recovered activity of inhibited hTG2 (TG2): no recovered activity

C=CC(=O)NCCCC[C@H](NC(=O)OCc1ccccc1)C(=O)NCCOCCOCCNS(=O)(=O)c1cccc2c(N(C)C)cccc12 [NC9]
time to initiation of procaspase 3 cleavage after addition (procaspase 3): ≤ 1 h
cell migration / scratch wound closure (A431 cells): reduced cell migration
